Where “and” joins values, the source holds several entries; their conditions need not be identical. Identical values can stand only once.
How the values were obtained:
[1] = tested on: primary AML patient blasts; assay: Colony-Forming Unit-Granulocyte and Macrophage (CFU-GM) assay; type: cell-based, human; conditions: 3 µM, colonies counted after 14 days
Description: Primary AML patient samples were treated and plated at 5000–10,000 cells in 1.1 ml methylcellulose supplemented with recombinant human stem cell factor, interleukin 3, granulocyte colony-stimulating factor, and granulocyte-macrophage colony-stimulating factor (MethoCult™, […] Technologies, Vancouver, Canada) per dish in duplicates. Colonies were counted after 14 days when using primary patient samples.
(§1) MTS proliferation assay using a human stroma co-culture assay. […] FLT3 wild-type (WT) samples (red) and FLT3-ITD (black). Colony-Forming Unit-Granulocyte and Macrophage (CFU-GM) assay. […] Number of colonies were counted after 14 days (c)

[2] = cited from earlier work
[3] = tested on: Ba/F3 FLT3-ITD pMIT SYK-TEL
Description: (§4) CellTiter 96 Aqueous MTS reagent (Promega, Madison, WI) was added to cells followed by a 3-h incubation at 37 °C, 5% CO2. The absorbance was measured at 490 nm using DTX 880 plate reader and the half maximal inhibitory concentration (IC50) was calculated using GraphPad Prism 7 (GraphPad Software, La Jolla, CA) and SAS/STAT software (SAS v9.4 for Windows, SAS Institute, Inc., Cary, NC).

[4] = tested on: MV4-11; assay: MTS proliferation assay 72 h, MV4-11; type: cell-based; conditions: Homo sapiens, MV4-11, read-out: Estimated absolute µM IC50 (95% CI), 4-parameter logistic model
Description: (§5) A total of 5000–30,000 cells from the lines above were treated in a 96-well plate for 72 h. CellTiter 96 Aqueous MTS reagent (Promega, Madison, WI) was added to cells followed by a 3-h incubation at 37 °C, 5% CO2. The absorbance was measured at 490 nm using DTX 880 plate reader and the half maximal inhibitory concentration (IC50) was calculated using GraphPad Prism 7 (GraphPad Software, La Jolla, CA) and SAS/STAT software (SAS v9.4 for Windows, SAS Institute, Inc., Cary, NC).

[5] = tested on: OCI-AML3; assay: MTS proliferation assay 72 h, OCI-AML3; type: cell-based; conditions: Homo sapiens, OCI-AML-3, read-out: Estimated absolute µM IC50 (95% CI), 4-parameter logistic model
Description: as §5

[6] = tested on: phosphorylation of Tyrosine 416 of the SFK; assay: Immunoblot of phospho-SFK Tyr416; type: cell-based, human; conditions: MOLM-13, MV4-11, and OCI-AML3, 10-min treatment
Description: (§2) Cell lines were serum starved overnight followed by a 10-min treatment. Cells were washed in ice-cold PBS then lysed in 1X Cell Lysis Buffer (CST) supplemented with proteinase and phosphatase inhibitors cocktail (Roche). Pierce BCA Protein Assay was used to quantify the protein lysates (Thermo Fisher Scientific, Waltham, MA). For Immunoblotting, 15–25 μg of protein lysate was prepared in 2X or 4X Laemmeli’s sample buffer (Bio-Rad Laboratories, Hercules, CA) and heated for 5 min at 100 °C. Samples were separated on 8% sodium dodecyl sulfate polyacrylamide gel and transferred onto nitrocellulose membrane (Bio-Rad Laboratories, Hercules, CA). The membranes were blocked for 1 h in Blocker BLOTTO Blocking Buffer (Thermo Fisher Scientific, Waltham, MA) or 5% non-fat milk followed by overnight incubation at 4 °C with primary antibody followed by HRP-conjugated secondary antibodies and visualized with chemiluminescent Pierce ECL Substrate (Thermo Fisher Scientific, Waltham, MA) on X-ray films.
(§3) Immunoblot analysis for MOLM-13, MV4-11, and OCI-AML3 AML cell lines (representative of 2-3 independent blots). […] Twenty to 25 μg of total protein lysate was loaded per lane.

[7] = tested on: Ba/F3 FLT3-ITD Parental
Description: as §4

[8] = design: method as in doi:10.1182/blood-2018-99-116338; conditions: dose escalation study; cited from earlier work
[9] = tested on: primary AML patient blasts; assay: MTS proliferation assay, primary AML blasts co-cultured with HS5-GFP stroma cells, 96 h; type: cell-based, human; conditions: HS5-GFP co-culture
From the text: For in vitro cytotoxicity experiments (Fig. 1b–d), repeated measures models were used to account for correlations among observations from the same experiment. The percentage of live cells was compared at each concentration with DMSO. […] Mixed effects models were used in experiments described in Additional file 1: Table S4 and Fig. 2c to account for correlations within a single patient. Outcome data were first log-transformed to stabilize variances and reduce skewness. For survival experiments (Figs. 5 and 6a), Kaplan-Meier curves were produced and group differences for Fig. 5 and assessed by the log-rank test and for Fig. 6a, p values have been adjusted for multiple comparisons using Holm’s procedure. p values from experiments with multiple endpoints were adjusted for multiple comparisons using either Holm’s procedure or Dunnett’s test (all comparisons against vehicle/DMSO).
as §1

[10] = tested on: Ba/F3 FLT3-ITD pMIT-Empty
Description: as §4

[11] = tested on: Ba/F3 FLT3-D835Y; assay: MTT proliferation assay 72 h, Ba/F3 FLT3-D835Y; type: cell-based, murine; conditions: Mus musculus, BaF3, read-out: Estimated absolute µM IC50 and 95% CI
Description: For the MOLM-13 resistant and the Ba/F3-FLT3-ITD/TKD cell lines, cells were treated for 72 h and cell viability was evaluated using MTT assay (Roche Diagnostics. Mannheim. Germany) according to the manufacturer’s instructions.

[12] = target: T1, FLT3-WT (Homo sapiens, UniProt P36888); assay: Biochemical assay of recombinant kinases, FLT3-WT; conditions: recombinant kinase domain, 10 μmol/L ATP
T1 construct: measured using recombinant protein constructs of kinase domains (Reaction Biology); purchased Reaction Biology
Description: Biochemical inhibition of FLT3-WT and FLT3-ITD fusion was measured using recombinant protein constructs of kinase domains (Reaction Biology).

[13] = tested on: BTK phosphorylation; assay: Immunoblot of phospho-BTK; type: cell-based, human; conditions: AML cell lines; MOLM-13 1 µM for 1 hour (Figure S2)
Description: as §2, with “Cells” for “Cell lines were serum starved overnight followed by a 10-min treatment. Cells”
as §3

T1 sequence (P36888 610-943 limits assumed): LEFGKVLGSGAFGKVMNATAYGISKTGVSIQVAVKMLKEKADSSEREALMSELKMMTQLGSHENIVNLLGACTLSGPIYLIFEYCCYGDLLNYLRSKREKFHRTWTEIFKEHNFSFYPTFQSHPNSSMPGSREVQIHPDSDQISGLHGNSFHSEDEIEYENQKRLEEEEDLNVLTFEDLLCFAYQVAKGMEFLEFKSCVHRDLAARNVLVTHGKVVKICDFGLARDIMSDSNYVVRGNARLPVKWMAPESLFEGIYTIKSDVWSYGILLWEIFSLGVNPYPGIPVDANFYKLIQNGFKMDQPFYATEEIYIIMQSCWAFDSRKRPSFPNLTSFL

O=C(c1ccc(Oc2ccccc2)cc1Cl)c1c[nH]c2ncnc(N[C@@H]3CC[C@@H](CO)OC3)c12 [ARQ 531]
Estimated ratio of colony formation vs. DMSO [1]: 0.45
Cmax ([2]; 65 mg daily dose): ~3000 nM
concentration steady-state levels ([2]; ongoing phase 1 dose escalation trial in relapsed or refractory CLL): exceeding 1 μM
IC50 [3]: 11 µM and 5.94 µM and 6.61 µM
IC50 [4]: 1.45 µM
IC50 [5]: 1.51 µM
inhibition of phosphorylation of Tyrosine 416 of the SFK [6]: potently inhibited
IC50 [7]: 2.71 µM and 2.53 µM
treatment emergent adverse events [8]: no reported treatment emergent adverse events
Estimated Ratio of proliferation versus vehicle (DMSO) ([9]; 0.005 µM): 0.91
Estimated Ratio of proliferation versus vehicle (DMSO) ([9]; 0.01 µM): 0.95
Estimated Ratio of proliferation versus vehicle (DMSO) ([9]; 0.05 µM): 0.92
Estimated Ratio of proliferation versus vehicle (DMSO) ([9]; 0.1 µM): 0.9
Estimated Ratio of proliferation versus vehicle (DMSO) ([9]; 0.5 µM): 0.69
Estimated Ratio of proliferation versus vehicle (DMSO) ([9]; 1 µM): 0.58
Estimated Ratio of proliferation versus vehicle (DMSO) ([9]; 5 µM): 0.34
Estimated Ratio of proliferation versus vehicle (DMSO) ([9]; 10 µM): 0.28
Estimated Ratio of proliferation versus vehicle (DMSO) ([9]; 50 µM): 0.09
IC50 [10]: 4.24 µM and 2.7 µM and 3.48 µM
IC50 [11]: 6.11 µM
IC50 [12]: 0.082 µM
effect on BTK phosphorylation [13]: potently inhibits BTK

From paper PMC6988309, “Preclinical efficacy for a novel tyrosine kinase inhibitor, ArQule 531 against acute myeloid leukemia” (Journal of Hematology & Oncology, 2020)
